In assay [1] the target is T1, GST tagged LXRbeta LBD (ligand binding domain) (Homo sapiens, UniProt P55055).
T1 construct: purchased Invitrogen pv4658.pps
T1 sequence (P55055 222-460 limits assumed): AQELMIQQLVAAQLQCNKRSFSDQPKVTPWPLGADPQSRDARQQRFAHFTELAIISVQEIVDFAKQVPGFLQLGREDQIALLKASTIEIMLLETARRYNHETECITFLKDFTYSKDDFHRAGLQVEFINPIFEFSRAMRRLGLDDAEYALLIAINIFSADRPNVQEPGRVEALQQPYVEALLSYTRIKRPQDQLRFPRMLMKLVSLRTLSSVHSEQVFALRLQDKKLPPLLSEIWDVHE
Description: LanthaScreen TR-FRET Liver X Receptor Coactivator Assay, LXR beta-LBD. Type of assay: biochemical. Particulars: relative to reference T0901317; for EC50: Inflection Point (potency), co-activator recruitment, read-out: LXR beta IP; for Emax: read-out: LXR beta act @ max dose (%). Summed up:
(§1)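 Coactivator-recruitment TR-FRET format: GST-LBD, fluorescein-labelled coactivator peptide, Tb-conjugated anti-GST antibody, incubated at RT. Potency and efficacy scaled to T0901317.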

The target in assay [2] is T2, GST tagged LXRalpha LBD (ligand binding domain) (Homo sapiens, UniProt Q13133).
T2 construct: purchased Invitrogen pv4655
T2 sequence (Q13133 209-447 limits assumed): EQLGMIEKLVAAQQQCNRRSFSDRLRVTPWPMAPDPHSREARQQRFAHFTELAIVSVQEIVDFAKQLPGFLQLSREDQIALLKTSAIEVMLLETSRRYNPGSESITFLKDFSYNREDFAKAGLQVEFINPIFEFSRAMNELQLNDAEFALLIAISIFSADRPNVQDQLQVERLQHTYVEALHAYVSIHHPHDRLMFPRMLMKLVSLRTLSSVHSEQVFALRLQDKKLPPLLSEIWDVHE
Description: LanthaScreen TR-FRET Liver X Receptor Coactivator Assay, LXR alpha-LBD. In kind it is biochemical. Particulars: relative to reference T0901317; for EC50: read-out: LXR alpha IP; for Emax: read-out: LXR alpha act @ max dose (%). Summed up:
as §1

[3] abbreviates: activity at max dose (efficacy).
[4] abbreviates: Inflection Point (potency), co-activator recruitment.

`CC(C)(C(=O)N1CCC(C2CCN(c3ccc(C(=O)N4CCCC4)c(Cl)c3)CC2)CC1)c1ccccc1` [Example E-18, 1-[3-chloro-4-(pyrrolidin-1-ylcarbonyl)phenyl]-1′-(2-methyl-2-phenylpropanoyl)-4,4′-bipiperidine]: the EC50 stood at 73 nM in assay [1] and 1280 nM in assay [2] (setting [4]). Further, the Emax in assay [1] (setting [3]) worked out at 99%; in assay [2] (setting [3]), 52%.
As to `CN(C)C(=O)c1ccc(N2CCC(C3CCN(C(=O)C4(C(F)(F)F)CCC4)CC3)CC2)cc1Cl` [Example A-29, 2-chloro-N,N-dimethyl-4-(1′-{[1-(trifluoromethyl)cyclobutyl]carbonyl}-4,4′-bipiperidin-1-yl)benzamide], the EC50 was 526 nM in assay [1] and 3580 nM in assay [2] (setting [4]). Moreover, the Emax was determined as 106% in assay [1] (setting [3]) and 46% in assay [2] (setting [3]).
Regarding `CN(C)C(=O)c1ccc(N2CCC(C3CCN(C(=O)C(F)(F)c4cccc(F)c4)CC3)CC2)cc1Cl` [Example A-69, 2-chloro-4-{1′-[difluoro(3-fluorophenyl)acetyl]-4,4′-bipiperidin-1-yl}-N,N-dimethylbenzamide], the EC50 came to 86 nM in assay [1] and 1770 nM in assay [2] (setting [4]). For the same compound, the Emax in assay [1] (setting [3]) is 113%; in assay [2] (setting [3]) it was 51%.
As to `CN(C)C(=O)c1ccc(N2CCC(C3CCN(C(=O)C4(c5ccccc5)CC4)CC3)CC2)cc1Cl` [Example A-39, 2-chloro-N,N-dimethyl-4-{1′-[(1-phenylcyclopropyl)carbonyl]-4,4′-bipiperidin-1-yl}benzamide], the results for the EC50 in assay [1] and in assay [2] (setting [4]) were 140 nM and 5510 nM, respectively. The Emax was 101% in assay [1] (setting [3]) and 32% in assay [2] (setting [3]).
In the same order, the values of `CC(C)(C)OC(=O)NCC1CN(C(=O)c2ccc(N3CCC(C4CCN(C(=O)[C@](O)(c5ccccc5)C(F)(F)F)CC4)CC3)cc2Cl)C1` [Example E-39, tert-butyl ({1-[(2-chloro-4-{1′-[(2R)-3,3,3-trifluoro-2-hydroxy-2-phenylpropanoyl]-4,4′-bipiperidin-1-yl}phenyl)carbonyl]azetidin-3-yl}methyl)carbamate] are 141 nM, 1430 nM, 99% and 43%.
Taken in the same sequence, the figures for `CN(C)C(=O)c1ccc(N2CCC(C3CCN(C(=O)C(O)(c4ccccc4)C(F)(F)C(F)(F)C(F)(F)F)CC3)CC2)cc1Cl` (stereo not shown) [Example A-54, 2-chloro-4-[1′-(3,3,4,4,5,5,5-heptafluoro-2-hydroxy-2-phenylpentanoyl)-4,4′-bipiperidin-1-yl]-N,N-dimethylbenzamide] were 410 nM, 827 nM, 75% and 15%.
For `CN(C)C(=O)c1ccc(N2CCC(C3CCN(C(=O)C(F)(F)c4ccc(F)cc4)CC3)CC2)cc1Cl` [Example A-63, 2-chloro-4-{1′-[difluoro(4-fluorophenyl)acetyl]-4,4′-bipiperidin-1-yl}-N,N-dimethylbenzamide], the EC50 in assay [1] stood at 218 nM; in assay [2] (setting [4]), 2880 nM. In addition, the Emax in assay [1] (setting [3]) came out at 114%; in assay [2] (setting [3]), 52%.
`Cc1cccc(C(O)(C(=O)N2CCC(C3CCN(c4ccc(C(=O)N(C)C)c(Cl)c4)CC3)CC2)C(F)(F)F)c1` (stereo not shown) [Example A-68, 2-chloro-N,N-dimethyl-4-{1′-[3,3,3-trifluoro-2-hydroxy-2-(3-methylphenyl)propanoyl]-4,4′-bipiperidin-1-yl}benzamide]: the EC50 in assay [1] was 280 nM. Besides, the Emax turned out to be 91% in assay [1] (setting [3]) and 27% in assay [2] (setting [3]). Besides, in assay [2] (setting [4]), the “LXR alpha IP (nM)” value is “NO IP”.
`O=C(c1ccc(N2CCC(C3CCN(C(=O)[C@](O)(c4ccccc4)C(F)(F)F)CC3)CC2)cc1Cl)N1CCC[C@@H]1CO` [Example E-23, (2R)-3-[1′-(3-chloro-4-{[(2R)-2-(hydroxymethyl)pyrrolidin-1-yl]carbonyl}phenyl)-4,4′-bipiperidin-1-yl]-1,1,1-trifluoro-3-oxo-2-phenylpropan-2-ol]: the EC50 in assay [1] is 125 nM; in assay [2] (setting [4]) it was 1780 nM. Further, the Emax in assay [1] (setting [3]) was found to be 72%; in assay [2] (setting [3]), 25%.
Taken in the same sequence, the figures for `CN(C)C(=O)c1ccc(N2CCC(C3CCN(C(=O)C(O)(c4ccccc4)C(F)(F)F)CC3)CC2)nc1Cl` (stereo in doubt) [Example B-9, 2-chloro-N,N-dimethyl-6-{1′-[(2R)-3,3,3-trifluoro-2-hydroxy-2-phenylpropanoyl]-4,4′-bipiperidin-1-yl}pyridine-3-carboxamide] were 48 nM, 1970 nM, 104% and 31%.
Taken in the same sequence, the figures for `O=C(c1ccc(N2CCC(C3CCN(C(=O)[C@](O)(c4ccccc4)C(F)(F)F)CC3)CC2)cc1Cl)N1CC(O)C1` [Example E-36, 1-[(2-chloro-4-{1′-[(2R)-3,3,3-trifluoro-2-hydroxy-2-phenylpropanoyl]-4,4′-bipiperidin-1-yl}phenyl)carbonyl]azetidin-3-ol] were 453 nM, 3820 nM, 74% and 23%.
`CN(C)C(=O)c1ccc(N2CCC(C3CCN(C(=O)C(O)(c4ccccc4F)C(F)(F)F)CC3)CC2)cc1Cl` (stereo not shown) [Example A-96, 2-chloro-N,N-dimethyl-4-{1′-[3,3,3-trifluoro-2-(2-fluorophenyl)-2-hydroxypropanoyl]-4,4′-bipiperidin-1-yl}benzamide]: the EC50 in assay [1] was 132 nM; in assay [2] (setting [4]), 2340 nM. The Emax was found to be 107% in assay [1] (setting [3]) and 29% in assay [2] (setting [3]).
In the same order, the values of `CC(C)N(C)C(=O)c1ccc(N2CCC(C3CCN(C(=O)[C@](O)(c4ccccc4)C(F)(F)F)CC3)CC2)cc1Cl` [Example E-33, 2-chloro-N-methyl-N-(1-methylethyl)-4-{1′-[(2R)-3,3,3-trifluoro-2-hydroxy-2-phenylpropanoyl]-4,4′-bipiperidin-1-yl}benzamide] are 71 nM, 893 nM, 95% and 24%.
Taken in the same sequence, the figures for `CCCN(C)C(=O)c1ccc(N2CCC(C3CCN(C(=O)[C@](O)(c4ccccc4)C(F)(F)F)CC3)CC2)cc1Cl` [Example E-61, 2-chloro-N-methyl-N-propyl-4-{1′-[(2R)-3,3,3-trifluoro-2-hydroxy-2-phenylpropanoyl]-4,4′-bipiperidin-1-yl}benzamide] were 100 nM, 1280 nM, 94% and 29%.
With `CN(C)C(=O)c1ccc(N2CCC(C3CCN(C(=O)C(O)(c4ccccc4)C(F)(F)C(F)(F)C(F)(F)F)CC3)CC2)cc1Cl` (stereo not shown) [Example A-55, 2-chloro-4-[1′-(3,3,4,4,5,5,5-heptafluoro-2-hydroxy-2-phenylpentanoyl)-4,4′-bipiperidin-1-yl]-N,N-dimethylbenzamide], the EC50 in assay [1] amounted to 408 nM; in assay [2] (setting [4]) it was 1340 nM. Further, in assay [1] (setting [3]), the “LXR beta act @ max dose (%)” value came to 93%. Moreover, the “LXR alpha act @ max dose (%)” value in assay [2] (setting [3]) is listed as 25%.
Turning to `COc1cccc([C@](O)(C(=O)N2CCC(C3CCN(c4ccc(C(=O)N(C)C)c(Cl)c4)CC3)CC2)C(F)(F)F)c1` (single isomer, unassigned) [Example A-66], the results for the EC50 in assay [1] and in assay [2] (setting [4]) were 251 nM and 2480 nM, respectively. The Emax in assay [1] (setting [3]) turned out to be 90%; in assay [2] (setting [3]), 21%.
Take `COc1ccccc1C1(C(=O)N2CCC(C3CCN(c4ccc(C(=O)N(C)C)c(Cl)c4)CC3)CC2)CCC1` [Example A-87, 2-chloro-4-(1′-{[1-(2-methoxyphenyl)cyclobutyl]carbonyl}-4,4′-bipiperidin-1-yl)-N,N-dimethylbenzamide]: the EC50 in assay [1] stood at 11 nM; in assay [2] (setting [4]) it was 499 nM. Besides, the Emax came to 110% in assay [1] (setting [3]) and 58% in assay [2] (setting [3]).
In the same order, the values of `O=C(c1ccc(N2CCC(C3CCN(C(=O)[C@@](O)(c4ccccc4)C(F)(F)F)CC3)CC2)cc1Cl)N1CCCC1` (single isomer, unassigned) [Example E-19] are 284 nM, 3140 nM, 88% and 33%.
In the same order, the values of `Cc1ccccc1C1(C(=O)N2CCC(C3CCN(c4ccc(C(=O)N(C)C)c(Cl)c4)CC3)CC2)CCC1` [Example A-75, 2-chloro-N,N-dimethyl-4-(1′-{[1-(2-methylphenyl)cyclobutyl]carbonyl}-4,4′-bipiperidin-1-yl)benzamide] are 18 nM, 446 nM, 118% and 65%.
